Key:
[1] = system: female db/db mice; assay: blood sugar level depressing activity in dd/db mice; format: in vivo; conditions: dose 10 mg/kg, drug mixed with powder diet, given for 14 days, difference between db/db control group and +/+ mice taken as 100%
Experimental: (blood sugar level depressing activity in dd/db mice)
Female C57BL/KsJ-dbm db+/db+, C57BL/KsJ-dbm +m/+m (Jackson Laboratory) mice (5 weeks old) were purchased and subjected to the test after 2-3 weeks of acclimating period.
The test drug was mixed with a powder diet (CE-2, Clea Japan, Inc.) in a mortar. In the case of administration in 100 mg/kg, the mixing proportion of the test drug to the diet was 0.1%, in the case of 30 mg/kg, the proportion was 0.03% and in the case of 10 mg/kg, the proportion was 0.01%. The diet was changed twice a week. The amount of the diet given and the amount left were recorded and the diet intake was calculated by determining the difference.
The female db/db mice were grouped according to body weight, blood sugar level and triglceride concentration in blood. […] The blood sugar value, triglyceride concentration in plasma and insulin concentration in plasma were measured at day 0 and day 14, and blood sugar value and triglyceride concentration in blood were measured at day 7. Body weight was measured at day 0, day 7 and day 14. […]
Blood sugar value was measured using 10-15 μl of plasma and in accord with glucose oxidase method glucose CII-test Waco, Waco Pure Chemicals Co., Ltd.). […] The insulin concentration in plasma was measured using 20 μl of plasma (preservable at −20° C.) and in accord with an antibody method (Phadesef Insulin RIA kit, Kabi Pharmacia). […]

Row | melting point | SMILES | Blood sugar decrease (%) [1]
1 | – | CCCCCS(=O)(=O)NC(=O)c1ccc2oc(C)c(Cc3ccc(Cl)cc3Cl)c2c1 [Compound A, 3-(2,4-Dichlorobenzyl)-2-methyl-5-(1-n-pentanesulfonylcarbamoyl)-benzo[b]furan] | 71%
2 | 227 to 228 °C | CCCCCS(=O)(=O)NC(=O)c1cc(C)c2nc(C)n(Cc3ccc(-c4ccccc4)cc3Cl)c2n1 [Example 184, 3-(2-chloro-4-phenylbenzyl)-2,7-dimethyl-5-(1-pentanesulfonylcarbamoyl)-3H-imidazo[4,5-b]pyridine] | –
3 | 241 to 242 °C | Cc1cc(C(=O)NS(=O)(=O)c2ccc(Cl)s2)nc2c1nc(C)n2Cc1ccc(-c2ccccc2)cc1Cl [Example 185, 3-(2-chloro-4-phenylbenzyl)-5-[(5-chlorothiophen-2-yl)sulfonylcarbamoyl]-2,7-dimethyl-3H-imidazo[4,5-b]pyridine] | –
4 | 243 to 244 °C | Cc1cc(C(=O)NS(=O)(=O)c2ccc(Br)s2)nc2c1nc(C)n2Cc1ccc(-c2ccccc2)cc1Cl [Example 186, 5-[(5-bromothiophen-2-yl)sulfonylcarbamoyl]-3-(2-chloro-4-phenylbenzyl)-2,7-dimethyl-3H-imidazo[4,5-b]pyridine] | –
5 | 220 to 224 °C | CCCCCS(=O)(=O)NC(=O)c1cc(C)c2nc(C)n(Cc3ccc(-c4cccs4)cc3Cl)c2n1 [Example 188, 3-[2-chloro-4-(thiophen-2-yl)benzyl]-2,7-dimethyl-5-(1-pentanesulfonylcarbamoyl)-3H-imidazo[4,5-b]pyridine] | –
6 | 215 to 217 °C | CCCCCS(=O)(=O)NC(=O)c1cc(C)c2nc(C)n(Cc3ccc(-c4ccc(Cl)s4)cc3Cl)c2n1 [Example 193, 3-[2-chloro-4-(5-chlorothiophen-2-yl)benzyl]-2,7-dimethyl-5-(1-pentanesulfonylcarbamoyl)-3H-imidazo[4,5-b]pyridine] | –
7 | 224 to 225 °C | Cc1cc(C(=O)NS(=O)(=O)/C=C/c2ccccc2)nc2c1nc(C)n2Cc1ccc(-c2ccc(Cl)s2)cc1Cl [Example 196, 3-[2-chloro-4-(5-chlorothiophen-2-yl)benzyl]-2,7-dimethyl-5-[(E)-(2-phenylethenyl)sulfonylcarbamoyl]-3H-imidazo[4,5-b]pyridine] | –
